Data reported in patent publication US12011444B2, “N-substituted indole derivatives as PGE2 receptor modulators” (Idorsia Pharmaceuticals Ltd, priority 2015, dated 2024).
pIC50: −log10 of the molar value.

Columns and labels:
PTGER2 (EP2) = PTGER2 (EP2) (Homo sapiens (Human), UniProt P43116); assay: hEP2 b-arrestin assay (PathHunter HEK 293 PTGER2 b-arrestin cells); format: cell-based
Summary of the method: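 HEK293 cells expressing ProLink-tagged EP2 and EA-fused β-arrestin 2 (enzyme fragment complementation) were seeded 24 h, pre-incubated with compound 15 min at 37 °C, then stimulated with 5 μM PGE2 (final) for 120 min.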

PTRGER4 (EP4) = PTRGER4 (EP4) (Homo sapiens (Human), UniProt P35408); assay: hEP4 b-arrestin assay (PathHunter HEK 293 PTGER4 b-arrestin cells); format: cell-based
Summary of the method: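 Stably transfected HEK293 cells carrying EP4–ProLink and β-arrestin 2–EA (β-gal fragment complementation), pre-incubated with compound 15 min at 37 °C, then stimulated with PGE2 (20 nM final) for 120 min at 37 °C. Chemiluminescence read after 1 h detection reagent at room temperature; activity per concentration expressed as percent of DMSO control.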

[1] = hEP2 b-arrestin assay (values without asterisk)
[2] = hEP4 b-arrestin assay (values without asterisk)
[3] = antagonistic activity on hEP2, mean where measured multiple times
[4] = antagonistic activity on hEP4, mean where measured multiple times

Chain of PTRGER4 (EP4) (P35408 whole entry, looked up, the tested form may be a part): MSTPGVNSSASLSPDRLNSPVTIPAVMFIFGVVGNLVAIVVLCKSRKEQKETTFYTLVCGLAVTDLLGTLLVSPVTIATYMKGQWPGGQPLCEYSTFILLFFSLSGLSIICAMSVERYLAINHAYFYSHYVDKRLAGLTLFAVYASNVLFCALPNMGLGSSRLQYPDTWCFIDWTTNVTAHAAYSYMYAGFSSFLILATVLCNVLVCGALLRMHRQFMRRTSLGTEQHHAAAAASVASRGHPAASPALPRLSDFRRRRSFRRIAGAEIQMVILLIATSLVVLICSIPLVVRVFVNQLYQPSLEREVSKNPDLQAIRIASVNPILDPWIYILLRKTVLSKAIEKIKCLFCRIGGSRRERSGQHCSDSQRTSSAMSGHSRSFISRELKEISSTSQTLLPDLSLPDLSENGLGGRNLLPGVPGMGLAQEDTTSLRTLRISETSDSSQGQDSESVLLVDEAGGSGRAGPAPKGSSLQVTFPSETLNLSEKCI
Chain of PTGER2 (EP2) (P43116 whole entry, the tested form may be a part): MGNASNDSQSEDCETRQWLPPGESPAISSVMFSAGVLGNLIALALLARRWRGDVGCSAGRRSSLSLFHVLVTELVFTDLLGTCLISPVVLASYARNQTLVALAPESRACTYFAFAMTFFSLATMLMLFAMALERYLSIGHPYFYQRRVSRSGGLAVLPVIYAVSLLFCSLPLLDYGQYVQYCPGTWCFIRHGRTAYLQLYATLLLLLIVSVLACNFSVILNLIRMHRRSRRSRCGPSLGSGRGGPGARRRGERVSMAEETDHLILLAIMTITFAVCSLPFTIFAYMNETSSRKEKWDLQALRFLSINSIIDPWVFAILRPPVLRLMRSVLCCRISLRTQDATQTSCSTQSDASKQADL

| pIC50 (PTGER2 (EP2); [1]) | pIC50 (PTRGER4 (EP4); [2]) | pIC50 (PTGER2 (EP2); [3]) | pIC50 (PTRGER4 (EP4); [4]) | SMILES |
| --- | --- | --- | --- | --- |
| 6.60 | 7.22 |  |  | COc1ccc(F)c2c1cc(C#N)n2CCNc1cc(-c2ccc(C3(F)COC3)s2)ncn1 [Example 1055, 7-Fluoro-1-(2-{6-[5-(3-fluoro-oxetan-3-yl)-thiophen-2-yl]-pyrimidin-4-ylamino}-ethyl)-4-methoxy-1H-indole-2-carbonitrile] |
| 8.30 | 8.22 |  |  | COc1ccc(F)c2c1cc(C#N)n2CCNc1cc(-c2ccc3[nH]ncc3c2)ncn1 [Example 977, 7-Fluoro-1-{2-[6-(1H-indazol-5-yl)-pyrimidin-4-ylamino]-ethyl}-4-methoxy-1H-indole-2-carbonitrile] |
| 7.74 | 7.38 |  |  | CCCOc1cc(-c2cc(NCCn3c(C#N)cc4c(OC)ccc(F)c43)ncn2)ccc1C(=O)O [Example 950, 4-{6-[2-(2-Cyano-7-fluoro-4-methoxy-indol-1-yl)-ethylamino]-pyrimidin-4-yl}-2-propoxy-benzoic acid] |
| 8.15 | 6.45 |  |  | CCOc1cc(-c2cc(NCCn3c(C)cc4c(OC)ccc(F)c43)ncn2)[nH]c1C(=O)O [Example 1014, 3-Ethoxy-5-{6-[2-(7-fluoro-4-methoxy-2-methyl-indol-1-yl)-ethylamino]-pyrimidin-4-yl}-1H-pyrrole-2-carboxylic acid] |
| 7.77 | 7.48 |  |  | CCCOc1cc(-c2cc(NCCn3c(C#N)cc4c(OC)ccc(F)c43)ncn2)cc(F)c1C(=O)O [Example 908, 4-{6-[2-(2-Cyano-7-fluoro-4-methoxy-indol-1-yl)-ethylamino]-pyrimidin-4-yl}-2-fluoro-6-propoxy-benzoic acid] |
| 8.15 | 8.40 |  |  | CCCSc1cc(-c2cc(NCCn3c(C#N)cc4c(OC)ccc(F)c43)ncn2)ccc1C(=O)O [Example 935, 4-{6-[2-(2-Cyano-7-fluoro-4-methoxy-indol-1-yl)-ethylamino]-pyrimidin-4-yl}-2-propylsulfanyl-benzoic acid] |
| 8.40 | 8.70 |  |  | COc1ccc(F)c2c1cc(C#N)n2CCNc1cc(-c2ccc(-c3nc(C)[nH]c3C)cc2)ncn1 [Example 821, 1-(2-{6-[4-(2,5-Dimethyl-1H-imidazol-4-yl)-phenyl]-pyrimidin-4-ylamino}-ethyl)-7-fluoro-4-methoxy-1H-indole-2-carbonitrile] |
|  |  | 7.28 | 6.71 | COc1ccc(F)c2c1cc(C)n2CCNc1cc(-c2ccc(-n3cccn3)cc2)ncn1 [compound 190] |
| 6.71 | 6.50 |  |  | COc1ccc(F)c2c1cc(C#N)n2CCNc1cc(-c2ccnc(N3CCCCC3)c2)ncn1 [Example 976, 7-Fluoro-4-methoxy-1-{2-[6-(3,4,5,6-tetrahydro-2H-[1,2′]bipyridinyl-4′-yl)-pyrimidin-4-ylamino]-ethyl}-1H-indole-2-carbonitrile] |
| 7.59 | 7.14 |  |  | COc1n[nH]c2cc(-c3cc(NCCn4c(C#N)cc5c(OC)ccc(F)c54)ncn3)ccc12 [Example 918, 7-Fluoro-4-methoxy-1-{2-[6-(3-methoxy-1H-indazol-6-yl)-pyrimidin-4-ylamino]-ethyl}-1H-indole-2-carbonitrile] |
| 7.05 | 6.71 |  |  | COc1ccc(F)c2c1cc(C#N)n2CCNc1cc(-c2ccc(C(O)CO)cc2)ncn1 (racemic) [Example 862, rac-1-(2-{6-[4-(1,2-Dihydroxy-ethyl)-phenyl]-pyrimidin-4-ylamino}-ethyl)-7-fluoro-4-methoxy-1H-indole-2-carbonitrile] |

Continued, compound first:

| SMILES | pIC50 (PTGER2 (EP2); [1]) | pIC50 (PTRGER4 (EP4); [2]) | pIC50 (PTGER2 (EP2); [3]) | pIC50 (PTRGER4 (EP4); [4]) |
| --- | --- | --- | --- | --- |
| COc1ccc(F)c2c1cc(C#N)n2CCNc1cc(-c2ccc(C(=O)O)c(OCC(C)C)c2)ncn1 [Example 949, 4-{6-[2-(2-Cyano-7-fluoro-4-methoxy-indol-1-yl)-ethylamino]-pyrimidin-4-yl}-2-isobutoxy-benzoic acid] | 8.15 | 7.85 |  |  |
| CCOc1cc(-c2cc(NCCn3c(C)cc4c(F)c(F)cc(F)c43)ncn2)sc1C(=O)O [compound 275] |  |  | 9.00 | 7.60 |
| CCOc1cc(-c2cc(NCCn3c(C#N)cc4cccc(F)c43)ncn2)sc1C(=O)O [Example 892, 5-{6-[2-(2-Cyano-7-fluoro-indol-1-yl)-ethylamino]-pyrimidin-4-yl}-3-ethoxy-thiophene-2-carboxylic acid] | 9.00 | 7.62 |  |  |
| Cc1cc2c(F)ccc(F)c2n1CCNc1cc(-c2ccc(C(=O)O)c(CC(C)C)c2)ncn1 [compound 332, 4-{6-[2-(4,7-Difluoro-2-methyl-indol-1-yl)-ethylamino]-pyrimidin-4-yl}-2-isobutyl-benzoic acid] |  |  | 8.30 | 6.23 |
| N#Cc1c(F)c2ccccc2n1CCNc1cc(-c2cc(C(F)(F)F)c(C(=O)O)s2)ncn1 [Example 840, 5-{6-[2-(2-Cyano-3-fluoro-indol-1-yl)-ethylamino]-pyrimidin-4-yl}-3-trifluoromethyl-thiophene-2-carboxylic acid] | 7.32 | 7.33 |  |  |
| CCOc1cc(-c2cc(NCCn3c(C)c(F)c4c(OC)ccc(F)c43)ncn2)sc1C(=O)O [Example 1057, 5-{6-[2-(3,7-Difluoro-4-methoxy-2-methyl-indol-1-yl)-ethylamino]-pyrimidin-4-yl}-3-ethoxy-thiophene-2-carboxylic acid] | 8.22 | 8.05 |  |  |
| Cc1cc2ccccc2n1CCNc1cc(-c2ccc(C(=O)O)c(CC(C)C)c2)ncn1 [compound 119, 2-Isobutyl-4-{6-[2-(2-methyl-indol-1-yl)-ethylamino]-pyrimidin-4-yl}-benzoic acid] |  |  | 7.74 | 6.03 |
| COc1ccc(F)c2c1c(F)c(C)n2CCNc1cc(-c2cc(C(F)(F)F)c(C(=O)O)s2)ncn1 [Example 1058, 5-{6-[2-(3,7-Difluoro-4-methoxy-2-methyl-indol-1-yl)-ethylamino]-pyrimidin-4-yl}-3-trifluoromethyl-thiophene-2-carboxylic acid] | 7.29 | 7.72 |  |  |
| CCCSc1cc(-c2cc(NCCn3c(C#N)cc4c(OC)cc(F)cc43)ncn2)ccc1C(=O)O [Example 936, 4-{6-[2-(2-Cyano-6-fluoro-4-methoxy-indol-1-yl)-ethylamino]-pyrimidin-4-yl}-2-propylsulfanyl-benzoic acid] | 7.74 | 8.10 |  |  |
| COc1cccc2c1cc(C)n2CCNc1cc(-c2ccc3c(c2)C(C)NC3=O)ncn1 (racemic) [compound 86] |  |  | 7.92 | 6.06 |
| CCOc1cc(-c2cc(NCCn3c(C#N)cc4c(OC)cc(F)c(F)c43)ncn2)ccc1NCC(=O)O [Example 945, (4-{6-[2-(2-Cyano-6,7-difluoro-4-methoxy-indol-1-yl)-ethylamino]-pyrimidin-4-yl}-2-ethoxy-phenylamino)-acetic acid] | 8.05 | 8.70 |  |  |
| COc1cc(F)cc2c1cc(C)n2CCNc1cc(-c2ccc3c(c2)CC(=O)N3)ncn1 [compound 88] |  |  | 7.27 | 6.73 |
| Cc1n[nH]c2cc(-c3cc(NCCn4c(C)cc5c(C)cc(F)cc54)ncn3)ccc12 [compound 52] |  |  | 6.66 | 6.23 |
| COc1cccc2c1cc(C)n2CCNc1cc(-c2ccc(CO)c(C)c2)ncn1 [compound 13, (4-{6-[2-(4-Methoxy-2-methyl-indol-1-yl)-ethylamino]-pyrimidin-4-yl}-2-methyl-phenyl)-methanol] |  |  | 7.85 | 6.37 |
| CCN1Cc2cc(-c3cc(NCCn4c(C)cc5c(OC)cccc54)ncn3)ccc2C1=O [compound 197, 2-Ethyl-5-{6-[2-(4-methoxy-2-methyl-indol-1-yl)-ethylamino]-pyrimidin-4-yl}-2,3-dihydro-isoindol-1-one] |  |  | 7.49 | 6.12 |
| Cc1nnc(-c2ccc(-c3cc(NCCn4c(C)cc5c(C)ccc(F)c54)ncn3)cc2F)o1 [compound 306] |  |  | 6.39 | 6.68 |
| CCOc1cc(-c2cc(NCCn3c(C)cc4c(F)ccc(Cl)c43)ncn2)ccc1C(=O)O [compound 152, 4-{6-[2-(7-Chloro-4-fluoro-2-methyl-indol-1-yl)-ethylamino]-pyrimidin-4-yl}-2-ethoxy-benzoic acid] |  |  | 8.52 | 6.10 |
| N#Cc1cc2c(Cl)cc(F)c(F)c2n1CCNc1cc(-c2cc(F)c(C(=O)O)s2)ncn1 [Example 904, 5-{6-[2-(4-Chloro-2-cyano-6,7-difluoro-indol-1-yl)-ethylamin0]-pyrimidin-4-yl}-3-fluoro-thiophene-2-carboxylic acid] | 9.00 | 7.31 |  |  |
| CCOc1cc(-c2cc(NCCn3c(C)cc4c(OC)ccc(Cl)c43)ncn2)cc(C)c1C(=O)O [compound 365, 4-{6-[2-(7-Chloro-4-methoxy-2-methyl-indol-1-yl)-ethylamino]-pyrimidin-4-yl}-2-ethoxy-6-methyl-benzoic acid] |  |  | 7.60 | 6.39 |
| CCOc1cc(-c2cc(NCCn3c(C)cc4c(OC)ccc(F)c43)ncn2)ccc1NCC(=O)OC [Example 1042, (2-Ethoxy-4-{6-[2-(7-fluoro-4-methoxy-2-methyl-indol-1-yl)-ethylamino]-pyrimidin-4-yl}-phenylamino)-acetic acid methyl ester] | 7.96 | 7.24 |  |  |
| CCCc1cc(-c2cc(NCCn3c(C)cc4c(C#N)ccc(F)c43)ncn2)ccc1C(=O)O [compound 393] |  |  | 8.05 | 6.13 |
| CCOc1cc(-c2cc(NCCn3c(C#N)cc4cccc(F)c43)ncn2)ccc1NCC(=O)O [Example 896, (4-{6-[2-(2-Cyano-7-fluoro-indol-1-yl)-ethylamino]-pyrimidin-4-yl}-2-ethoxy-phenylamino)-acetic acid] | 8.70 | 7.47 |  |  |
